From PMC9516332 (Frontiers in Oncology, 2022)
Where two headings read alike, the source gives them in different places.

Columns and labels:
134 cancer cell lines = assay: Cell viability assay (ATPlite, 72 hours), IC50 on cancer cell line panel
AP-1060 (ETV6-NTRK3) = assay: Cell viability assay

**Q.** `CO[C@]1(C(=O)N[C@@H](C)c2ccc(-n3cc(F)cn3)nc2)CC[C@H](c2nc(C)cc(Nc3cc(C)[nH]n3)n2)CC1` [pralsetinib] was tested. Which IC50 (134 cancer cell lines; Homo sapiens, MV4-11, read-out: IC50 in cell proliferation assay, MV4-11 cell line (FLT3 ITD)) did it give?
**A.** 0.087 µM

**Q.** And the IC50 (134 cancer cell lines; Homo sapiens, MeWo, read-out: IC50 in cell proliferation assay, MeWo cell line)?
**A.** 6.97 µM

**Q.** And the IC50 (134 cancer cell lines; Homo sapiens, NCCIT, read-out: IC50 in cell proliferation assay, NCC-IT cell line)?
**A.** 1.66 µM

**Q.** What about the IC50 (134 cancer cell lines; Homo sapiens, NCI-H82, read-out: IC50 in cell proliferation assay, cell line NCI-H82) of the same compound?
**A.** 10.9 µM

**Q.** And the IC50 (134 cancer cell lines; Homo sapiens, NCI-H460, read-out: IC50 in cell proliferation assay, NCI-H460 cell line)?
**A.** 9.4 µM

**Q.** And the IC50 (134 cancer cell lines; Homo sapiens, NCI-H661, read-out: IC50 in cell proliferation assay, NCI-H661 cell line)?
**A.** 2.1 µM

**Q.** What about the IC50 (134 cancer cell lines; Homo sapiens, NCI-H716, read-out: IC50 in cell proliferation assay, cell line NCI-H716 (FGFR2-COL14A1)) of the same compound?
**A.** 0.244 µM

**Q.** And the IC50 (134 cancer cell lines; Homo sapiens, NCI-H1650, read-out: IC50 in cell proliferation assay, NCI-H1650 cell line (EGFR exon19del))?
**A.** 2.56 µM

**Q.** And the IC50 (134 cancer cell lines; Homo sapiens, NCI-H1975, read-out: IC50 in cell proliferation assay, NCI-H1975 cell line (EGFR p.L858R + p.T790M))?
**A.** 6.51 µM

**Q.** What about the IC50 (134 cancer cell lines; Homo sapiens, NCI-H2228, read-out: IC50 in cell proliferation assay, NCI-H2228 cell line (EML4-ALK)) of the same compound?
**A.** 7.94 µM

**Q.** What about the IC50 (134 cancer cell lines; Homo sapiens, OVCAR-3, read-out: IC50 in cell proliferation assay, cell line OVCAR-3) of the same compound?
**A.** 4.11 µM

**Q.** What about the IC50 (134 cancer cell lines; Homo sapiens, PFSK-1, read-out: IC50 in cell proliferation assay, cell line PFSK-1) of the same compound?
**A.** 16.7 µM

**Q.** What about the IC50 (134 cancer cell lines; Homo sapiens, RL95-2, read-out: IC50 in cell proliferation assay, cell line RL95-2 (EGFR p.A289V)) of the same compound?
**A.** 1.39 µM

**Q.** What about the IC50 (134 cancer cell lines; Homo sapiens, RPMI-7951, read-out: IC50 in cell proliferation assay, cell line RPMI-7951 (BRAF p.V600E)) of the same compound?
**A.** 2.79 µM

**Q.** What about the IC50 (134 cancer cell lines; Homo sapiens, RS4-11, read-out: IC50 in cell proliferation assay, cell line RS4;11) of the same compound?
**A.** 14.7 µM

**Q.** What about the IC50 (134 cancer cell lines; Homo sapiens, Rec1, read-out: IC50 in cell proliferation assay, cell line REC-1) of the same compound?
**A.** 6.58 µM

**Q.** What about the IC50 (134 cancer cell lines; Homo sapiens, SHP77, read-out: IC50 in cell proliferation assay, cell line SHP-77) of the same compound?
**A.** > 31.6 µM

**Q.** And the IC50 (134 cancer cell lines; Homo sapiens, SK-BR-3, read-out: IC50 in cell proliferation assay, cell line SK-BR-3 (ERBB2 amplification))?
**A.** 3.88 µM

**Q.** What about the IC50 (134 cancer cell lines; Homo sapiens, SK-N-AS, read-out: IC50 in cell proliferation assay, cell line SK-N-AS) of the same compound?
**A.** 4.65 µM

**Q.** And the IC50 (134 cancer cell lines; Homo sapiens, SK-N-FI, read-out: IC50 in cell proliferation assay, cell line SK-N-FI)?
**A.** 4.14 µM

**Q.** What about the IC50 (134 cancer cell lines; Homo sapiens, SK-N-MC, read-out: IC50 in cell proliferation assay, cell line SK-N-MC) of the same compound?
**A.** 10.4 µM

**Q.** And the IC50 (134 cancer cell lines; Homo sapiens, SK-N-SH, read-out: IC50 in cell proliferation assay, cell line SK-N-SH (ALK p.F1174L))?
**A.** 1.65 µM

**Q.** What about the IC50 (134 cancer cell lines; Homo sapiens, SNU-5, read-out: IC50 in cell proliferation assay, cell line SNU-5 (MET amplification)) of the same compound?
**A.** > 31.6 µM

**Q.** And the IC50 (134 cancer cell lines; Homo sapiens, SNU-16, read-out: IC50 in cell proliferation assay, cell line SNU-16 (FGFR2 amplification))?
**A.** 0.135 µM

**Q.** And the IC50 (134 cancer cell lines; Homo sapiens, SNU-C2B, read-out: IC50 in cell proliferation assay, cell line SNU-C2B (EGFR p.R165Q))?
**A.** 19.6 µM

**Q.** And the IC50 (134 cancer cell lines; Homo sapiens, SU-DHL-1, read-out: IC50 in cell proliferation assay, cell line SU-DHL-1 (NPM1-ALK))?
**A.** 11.4 µM

**Q.** What about the IC50 (134 cancer cell lines; Homo sapiens, SU-DHL-6, read-out: IC50 in cell proliferation assay, cell line SU-DHL-6) of the same compound?
**A.** 1.93 µM

**Q.** What about the IC50 (134 cancer cell lines; Homo sapiens, SUP-T1, read-out: IC50 in cell proliferation assay, cell line SUP-T1) of the same compound?
**A.** 30.7 µM

**Q.** What about the IC50 (134 cancer cell lines; Homo sapiens, SW48, read-out: IC50 in cell proliferation assay, cell line SW48 (EGFR p.G719S)) of the same compound?
**A.** 4.57 µM

**Q.** What about the IC50 (134 cancer cell lines; Homo sapiens, SW480, read-out: IC50 in cell proliferation assay, cell line SW480) of the same compound?
**A.** 15.4 µM

**Q.** What about the IC50 (134 cancer cell lines; Homo sapiens, SW626, read-out: IC50 in cell proliferation assay, cell line SW626) of the same compound?
**A.** 9.63 µM

**Q.** What about the IC50 (134 cancer cell lines; Homo sapiens, SW780, read-out: IC50 in cell proliferation assay, cell line SW780 (FGFR3-BAIAP2L1)) of the same compound?
**A.** 1.41 µM

**Q.** What about the IC50 (134 cancer cell lines; Homo sapiens, SW837, read-out: IC50 in cell proliferation assay, cell line SW837) of the same compound?
**A.** 12.9 µM

**Q.** And the IC50 (134 cancer cell lines; Homo sapiens, SW872, read-out: IC50 in cell proliferation assay, cell line SW872 (BRAF p.V600E))?
**A.** 5.58 µM

**Q.** And the IC50 (134 cancer cell lines; Homo sapiens, SW900, read-out: IC50 in cell proliferation assay, cell line SW900)?
**A.** 5.11 µM

**Q.** What about the IC50 (134 cancer cell lines; Homo sapiens, SW948, read-out: IC50 in cell proliferation assay, cell line SW948) of the same compound?
**A.** 15.1 µM

**Q.** And the IC50 (134 cancer cell lines; Homo sapiens, SW982, read-out: IC50 in cell proliferation assay, cell line SW982 (BRAF p.V600E))?
**A.** 1.61 µM

**Q.** And the IC50 (134 cancer cell lines; Homo sapiens, SW-620, read-out: IC50 in cell proliferation assay, cell line SW620)?
**A.** 2.46 µM

**Q.** What about the IC50 (134 cancer cell lines; Homo sapiens, T98G, read-out: IC50 in cell proliferation assay, cell line T98G) of the same compound?
**A.** 0.785 µM

**Q.** And the IC50 (134 cancer cell lines; Homo sapiens, TCC-SUP, read-out: IC50 in cell proliferation assay, cell line TCCSUP)?
**A.** 5.55 µM

**Q.** What about the IC50 (134 cancer cell lines; Homo sapiens, THP-1, read-out: IC50 in cell proliferation assay, cell line THP-1) of the same compound?
**A.** > 31.6 µM

**Q.** What about the IC50 (134 cancer cell lines; Homo sapiens, U2OS, read-out: IC50 in cell proliferation assay, cell line U2OS) of the same compound?
**A.** 2.67 µM

**Q.** What about the IC50 (134 cancer cell lines; Homo sapiens, U-87 MG, read-out: IC50 in cell proliferation assay, cell line U-87MG ATCC) of the same compound?
**A.** 20.8 µM

**Q.** What about the IC50 (134 cancer cell lines; Homo sapiens, U-118-MG, read-out: IC50 in cell proliferation assay, cell line U-118MG) of the same compound?
**A.** 2.78 µM

**Q.** And the IC50 (134 cancer cell lines; Homo sapiens, UMUC3, read-out: IC50 in cell proliferation assay, cell line UM-UC-3)?
**A.** 2.83 µM

**Q.** And the IC50 (134 cancer cell lines; Hs766T, read-out: IC50 in cell proliferation assay, Hs 766T cell line)?
**A.** 3.3 µM

**Q.** What about the IC50 (134 cancer cell lines; L-82, read-out: IC50 in cell proliferation assay, L-82 cell line (NPM1-ALK)) of the same compound?
**A.** 11.1 µM

**Q.** What about the IC50 (134 cancer cell lines; Rh30, read-out: IC50 in cell proliferation assay, cell line Rh30) of the same compound?
**A.** 6.62 µM

**Q.** What about the IC50 (134 cancer cell lines; read-out: IC50 in cell proliferation assay, 11-18 cell line (EGFR p.L858R)) of the same compound?
**A.** 2.07 µM

**Q.** And the IC50 (134 cancer cell lines; read-out: IC50 in cell proliferation assay, Hs 852.T cell line)?
**A.** 10.8 µM

**Q.** And the IC50 (134 cancer cell lines; read-out: IC50 in cell proliferation assay, JAR cell line)?
**A.** 5.16 µM

**Q.** And the IC50 (134 cancer cell lines; read-out: IC50 in cell proliferation assay, cell line 5637)?
**A.** 4.55 µM

**Q.** And the IC50 (134 cancer cell lines; read-out: IC50 in cell proliferation assay, cell line A-388)?
**A.** 2.11 µM

**Q.** What about the IC50 (134 cancer cell lines; read-out: IC50 in cell proliferation assay, cell line DB) of the same compound?
**A.** 13.3 µM

**Q.** And the IC50 (134 cancer cell lines; read-out: IC50 in cell proliferation assay, cell line DEL (NPM1-ALK))?
**A.** 16.1 µM

**Q.** What about the IC50 (134 cancer cell lines; read-out: IC50 in cell proliferation assay, cell line ES-2 (BRAF p.V600E)) of the same compound?
**A.** 7.67 µM

**Q.** What about the IC50 (134 cancer cell lines; read-out: IC50 in cell proliferation assay, cell line PA-1) of the same compound?
**A.** 4.5 µM

**Q.** And the IC50 (134 cancer cell lines; read-out: IC50 in cell proliferation assay, cell line PC-3)?
**A.** 6.08 µM

**Q.** What about the IC50 (134 cancer cell lines; read-out: IC50 in cell proliferation assay, cell line RD) of the same compound?
**A.** 14.6 µM

**Q.** What about the IC50 (134 cancer cell lines; read-out: IC50 in cell proliferation assay, cell line RKO (BRAF p.V600E)) of the same compound?
**A.** 11.3 µM

**Q.** And the IC50 (134 cancer cell lines; read-out: IC50 in cell proliferation assay, cell line RL)?
**A.** 5.67 µM

**Q.** And the IC50 (134 cancer cell lines; read-out: IC50 in cell proliferation assay, cell line RT-4 (FGFR3-TACC3))?
**A.** 0.453 µM

**Q.** What about the IC50 (134 cancer cell lines; read-out: IC50 in cell proliferation assay, cell line SR (NPM1-ALK)) of the same compound?
**A.** 8.14 µM

**Q.** What about the IC50 (134 cancer cell lines; read-out: IC50 in cell proliferation assay, cell line T24) of the same compound?
**A.** 6.55 µM

**Q.** What about the IC50 (134 cancer cell lines; read-out: IC50 in cell proliferation assay, cell line TT (RET p.C634W)) of the same compound?
**A.** 0.055 µM

**Q.** And the IC50 (134 cancer cell lines; read-out: IC50 in cell proliferation assay, cell line VA-ES-BJ)?
**A.** 7.77 µM

**Q.** What about the “higher sensitivity of AP-1060 to pralsetinib compared to selpercatinib” value (AP-1060 (ETV6-NTRK3); cell viability) of the same compound?
**A.** ~20 fold

**Q.** And the IC50 (AP-1060 (ETV6-NTRK3); read-out: IC50 in cell proliferation assay)?
**A.** 0.206 µM
